PMC10009755, “Discovery and Characterization of BAY-805, a Potent and Selective Inhibitor of Ubiquitin-Specific Protease USP21” (Journal of Medicinal Chemistry, 2023)
In brackets after ≈: the same amount, converted by molar mass. Where two headings read alike, the source gives them in different places.

Key:
log D measurement (HPLC) = format: physicochemical; details: for chromatographic logD: reverse-phase HPLC, pH 7.5, pH 7.5, HPLC method, read-out: logD7.5; for logD7.5: pH 7.5, HPLC method
Description: log D values at pH 7.5 were recorded using an indirect method for determining hydrophobicity constants by reverse-phase HPLC. A series of compounds with well-known log D values were used for calibration. Test compounds were injected into the same HPLC system. The lipophilicity of compounds was then assessed by comparison to the calibration curve.

Aqueous solubility = format: physicochemical; details: PBS pH 6.5, pH 6.5, PBS pH 6.5
Description: Test compounds were applied as DMSO solutions or directly from powder. After the addition of the buffer, solutions were shaken at rt for 24 h. The undissolved material was removed by filtration or centrifugation. The compound dissolved in the supernatant was quantified by HPLC-UV or HPLC-MS/MS.

USP2 = molecular target: T1, USP2 (Homo sapiens, UniProt O75604); test: hUSP2 Ub-rhodamine 110 assay; format: biochemical; details: for IC50: arithmetic means of multiple measurements, read-out: IC50 hUSP2 Ub-Rhod
T1 construct: His tag
T1 sequence (O75604 259-605): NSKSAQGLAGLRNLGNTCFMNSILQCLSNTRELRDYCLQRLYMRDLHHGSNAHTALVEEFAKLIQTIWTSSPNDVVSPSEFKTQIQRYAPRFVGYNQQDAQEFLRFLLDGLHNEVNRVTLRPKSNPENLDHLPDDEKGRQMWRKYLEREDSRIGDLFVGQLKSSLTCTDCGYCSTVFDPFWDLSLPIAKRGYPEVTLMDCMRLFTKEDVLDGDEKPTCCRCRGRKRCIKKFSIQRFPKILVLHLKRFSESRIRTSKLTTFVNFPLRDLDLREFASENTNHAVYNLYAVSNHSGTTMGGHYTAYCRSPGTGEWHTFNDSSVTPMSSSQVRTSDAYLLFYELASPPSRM
Description: The final assay volume was 6 μL.

USP21 [1] = molecular target: T2, USP21 (Homo sapiens, UniProt Q9UK80)
T2 sequence (Q9UK80 1-565): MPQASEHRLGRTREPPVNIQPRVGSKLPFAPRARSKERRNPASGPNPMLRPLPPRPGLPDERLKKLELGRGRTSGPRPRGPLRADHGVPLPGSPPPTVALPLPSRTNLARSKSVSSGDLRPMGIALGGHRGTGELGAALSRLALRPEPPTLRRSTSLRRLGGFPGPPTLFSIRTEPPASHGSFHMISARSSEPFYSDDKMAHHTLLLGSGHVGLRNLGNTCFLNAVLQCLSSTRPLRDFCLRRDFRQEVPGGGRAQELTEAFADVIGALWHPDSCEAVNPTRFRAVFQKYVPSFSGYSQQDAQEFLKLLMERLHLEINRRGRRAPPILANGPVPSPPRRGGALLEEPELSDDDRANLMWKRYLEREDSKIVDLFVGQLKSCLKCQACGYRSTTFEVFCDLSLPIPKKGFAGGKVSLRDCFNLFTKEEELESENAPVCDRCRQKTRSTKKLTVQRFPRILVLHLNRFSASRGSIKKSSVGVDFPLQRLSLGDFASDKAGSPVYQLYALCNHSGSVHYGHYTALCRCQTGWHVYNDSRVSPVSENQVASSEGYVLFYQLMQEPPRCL
Description: To this end, we developed a USP21 activity assay that is based on the deubiquitination of a STING-derived peptide (a USP21-specific substrate[17],[18]) by purified recombinant human full-length USP21 using time-resolved fluorescence resonance energy transfer (TR-FRET) technology (referred to as a homogeneous time-resolved fluorescence (HTRF)-assay, for details see the Supporting Information).[39]
All substrate and enzyme solutions were diluted in an assay buffer. […] Incubation time was 15–20 min at room temperature. […] The stop solution (DUB inhibitor PR619, Abcam) was prepared in 25 mM HEPES, pH 7.5 (Alfa Aesar) containing 0.01% BSA and then left for 10 min at room temperature before filtering with a 0.2 μM PES Membrane (Thermo Fisher). The reaction was stopped with the addition of 2 μL of 200 μM PR619. […] The plates were measured on the ViewLux in screening or PHERAstar FSX in compound profiling. […] The number of flashes per well was set to 3. All of the experimental data were plotted using Genedata analysis. The Z′-factor and S/B of the assay were >0.7 and ∼2, respectively.

USP21 [2] = molecular target: T2, USP21; remark: listed apart in the source
Description: The final assay volume was 6 μL. […] First, 2 μL of 1 nM USP21 (or selectivity enzyme) solution was added to the compound plate and preincubated for 15–20 min at room temperature. […] The reaction was stopped by 50 mM citric acid in 25 mM HEPES, pH 7.5, containing 0.01% BSA. […] The USP21 and USP22 were measured with five flashes and USP2 and USP7 in fly mode.

USP21 [3] = molecular target: T2, USP21; test: Thermal shift assay (TSA); format: binding; parameters: purchased Ubiquigent (DUBprofiler service); details: 100 μM compound
Description: Experiments were carried out with the QuantStudio7 Flex Real-Time PCR system (Thermo Fisher Scientific) in a 384-well plate format with 5 μL of reaction volume. Melting curves were obtained at an USP21 protein concentration of 3.8 μM and 5xSYPRO Orange (Invitrogen) using a buffer containing 20 mM Tris, pH 7.5; 150 mM NaCl; 10% glycerol; and 1.0 mM TCEP. […] For binding experiments, compounds were added from 10 mM stock solution to a final concentration of 100 μM. As a control, 1% DMSO was used. Scans were measured from 25 to 95 °C at a scanning rate of 4 °C/min. All TSA data were analyzed using a Genedata Assay Analyzer.

NF-κB activation = test: NF-κB reporter assay; format: cell-based; details: HEK293T cells, up to 10 μM
Description: Yang and colleagues reported that USP21 inhibition induces NF-κB activation by preventing deubiquitination of RIP1.[15] K63 ubiquitinated RIP1 is required for NF-κB activation, and thus USP21-mediated deubiquitination of RIP1 shuts down the NF-κB pathway.
Four hours after replating, cells were treated with compounds or DMSO (note: DMSO concentrations were kept consistent across all cells). Promega Dual-Luciferase Reporter Assay kit was then used to prepare samples for Firefly and Renilla signal measurement on a CLARIOstar microplate reader (BMG) 20 h after compound treatment. Relative luciferase units were calculated by normalizing the Firefly signal to the background Renilla signal, followed by normalization to DMSO controls of wild-type USP21.

[4] = molecular target: T3, C-terminal HiBiT-tagged USP21 (Homo sapiens, UniProt Q9UK80); test: USP21 HiBiT CETSA; format: cell-based; details: 49 °C, HEK293T cells
T3 construct: expressed in transfected cells; host or cells: HEK293T
T3 sequence (Q9UK80 1-565): T2 sequence (Q9UK80 1-565)
Description: In particular, we utilized a HiBiT CETSA assay format[42],[43] conducted in intact HEK293T cells. Cells were transfected with USP21 fused to a small proluminescent NanoLuc HiBiT tag, which, when complemented with the Large BiT NanoLuc fragment, produces a quantifiable luminescence signal.
HEK293T cells were seeded in a six-well plate at 8 × 10^5 cells/well in 2 mL of DMEM supplemented with 10% FBS, penicillin (100 U/mL), and streptomycin (100 μg/mL) and transfected 4 h after seeding using an X-tremeGENE HP transfection reagent, following the manufacturer’s instructions with a total of 2 μg of plasmid constructs (C-terminally tagged USP21 HiBiT and empty pCDNA3.1 vector). […] The breathable paper adhesive film was then replaced with a PCR adhesive film, and cells were heated at indicated temperatures in an Applied Biosystems VeritiPro thermal cycler for 3 min, followed by 3 min incubation at rt before the addition of LgBiT solution (200 nM LgBiT, 2% NP-40, protease inhibitors (Roche cOmplete, ethylenediaminetetraacetic acid (EDTA)-free Protease Inhibitor) in OptiMEM no phenol red (Gibco)) to lyse cells.

in vitro = in vitro ADME; details: human, Caco-2, pH 7.2
Description: Caco-2 cells [purchased from the German Collection of Microorganisms and Cell Cultures (DSMZ)] were seeded at a density of 4.5 × 10^4 cells/well on 24-well insert plates [0.4 μm pore size, 0.3 cm^2 (Costar)] and grown for 13–15 days in DMEM medium supplemented with 10% fetal calf serum (FCS), 1% GlutaMAX (100×, Gibco), 100 U/mL penicillin, 100 μg/mL streptomycin (Gibco), and 1% nonessential amino acids (100×, Thermo Fischer Scientific). […] The medium was changed every 2–3 days.
The bidirectional transport assay for the evaluation of Caco-2 permeability was undertaken in 24-well insert plates using a robotic system (Tecan). Before the assay was run, the culture medium was replaced by a transport medium (FCS-free HEPES carbonate transport buffer pH 7.2). For the assessment of monolayer integrity, the transepithelial electrical resistance (TEER) was measured. Only monolayers with a TEER of at least 400 Ω·cm^2 were used. Test compounds were pre-dissolved in DMSO and added either to the apical or basolateral compartment at a final concentration of 2 μM. The evaluation was performed in triplicate. […] The efflux ratio (ER) basolateral (B) to apical (A) was calculated by dividing Papp B–A by Papp A–B.

Compound | chromatographic logD (log D measurement (HPLC)) | solubility at 24 h (Aqueous solubility) [µM] | IC50 (USP2) [µM] | IC50 (USP21 [1]) [µM] | IC50 (USP21 [2]) [µM] | other results
COC[C@@H](NC(=O)C1(C)CCCCC1)C(=O)Nc1nnc(Cc2ccc([N+](=O)[O-])cc2)s1 [Compound 10, COC[C@@H](NC(=O)C1(C)CCCCC1)C(=O)Nc2nnc(Cc3ccc(cc3)[N+](=O)[O-])s2] |  |  | > 25 | 0.074 |  | 
COCC(NC(=O)C1CCOCC1)C(=O)Nc1nnc(Cc2ccc([N+](=O)[O-])cc2)s1 (stereo not shown) [Compound 8, COCC(NC(=O)C1CCOCC1)C(=O)Nc2nnc(Cc3ccc(cc3)[N+](=O)[O-])s2] | 1.8 |  | > 25 | > 25 | > 25 | 
CC(C)C(NC(=O)C1CCCC1)C(=O)Nc1nnc(Cc2ccc([N+](=O)[O-])cc2)s1 (stereo not shown) [Compound 3, CC(C)C(NC(=O)C1CCCC1)C(=O)Nc2nnc(Cc3ccc(cc3)[N+](=O)[O-])s2] | 2.8 |  | > 25 | > 25 | > 25 | ΔTm at 100 µM (USP21 [3]): 0.3 °C
COCC(NC(=O)c1ccccc1)C(=O)Nc1nnc(Cc2ccc([N+](=O)[O-])cc2)s1 (stereo not shown) [Compound 5, COCC(NC(=O)c1ccccc1)C(=O)Nc2nnc(Cc3ccc(cc3)[N+](=O)[O-])s2] | 2.3 |  | > 25 | 11.8 | > 20.2 | 
COCC(NC(=O)C(C)C)C(=O)Nc1nnc(Cc2ccc([N+](=O)[O-])cc2)s1 (stereo not shown) [Compound 6, COCC(NC(=O)C(C)C)C(=O)Nc1nnc(Cc2ccc(cc2)[N+](=O)[O-])s1] | 2 |  | > 25 | > 25 | > 25 | 
COC[C@@H](NC(=O)C1(C)CCCCC1)C(=O)Nc1nc(C)c(Cc2ccc(C#N)cc2)s1 [Compound 12, COC[C@@H](NC(=O)C1(C)CCCCC1)C(=O)Nc2nc(C)c(Cc3ccc(cc3)C#N)s2] |  | 19.4 (≈ 8.83 µg/mL) |  |  |  | 
COCC(NC(=O)C1CCCCC1)C(=O)Nc1nnc(Cc2ccc([N+](=O)[O-])cc2)s1 (stereo not shown) [Compound 7, COCC(NC(=O)C1CCCCC1)C(=O)Nc2nnc(Cc3ccc(cc3)[N+](=O)[O-])s2] | 2.6 |  | > 25 |  |  | 
COCC(NC(=O)C1CCCC1)C(=O)Nc1nnc(Cc2ccc([N+](=O)[O-])cc2)s1 (stereo not shown) [Compound 4, COCC(NC(=O)C1CCCC1)C(=O)Nc2nnc(Cc3ccc(cc3)[N+](=O)[O-])s2] | 2.4 |  |  |  |  | 
COC[C@@H](NC(=O)C1(C)CCCCC1)C(=O)Nc1sc(Cc2ccc(C#N)cc2)nc1C [Compound 13, COC[C@@H](NC(=O)C1(C)CCCCC1)C(=O)Nc2sc(Cc3ccc(cc3)C#N)nc2C] |  |  |  | 0.065 | > 25 | 

More lines, main results first:

chromatographic logD (log D measurement (HPLC)) | solubility at 24 h (Aqueous solubility) [µM] | IC50 (USP2) [µM] | IC50 (USP21 [1]) [µM] | IC50 (USP21 [2]) [µM] | Compound | other results
2.68 | 131 (≈ 62.5 µg/mL) |  |  |  | COC[C@@H](NC(=O)C1(C(F)F)CCCCC1)C(=O)Nc1nnc(Cc2ccc(C#N)cc2)s1 [Compound 16, COC[C@@H](NC(=O)C1(CCCCC1)C(F)F)C(=O)Nc2nnc(Cc3ccc(cc3)C#N)s2] | 
2.7 | 126 (≈ 55.8 µg/mL) | > 25 |  |  | COC[C@@H](NC(=O)C1(C)CCCCC1)C(=O)Nc1nnc(Cc2ccc(C#N)cc2)s1 [Compound 11, COC[C@@H](NC(=O)C1(C)CCCCC1)C(=O)Nc2nnc(Cc3ccc(cc3)C#N)s2] | NF-κB activation (in words) (NF-κB activation): no NF-κB activation up to a concentration of 10 μM; cellular thermal stabilization of USP21 (in words) [4]: strong stabilization of USP21; logD7.5 (log D measurement (HPLC)): 2.69; selectivity against USP2 (USP2; vs USP21): > 780 fold
2.95 | 10.4 (≈ 5.17 µg/mL) |  |  |  | COC[C@@H](NC(=O)C1(C(F)(F)F)CCCCC1)C(=O)Nc1nnc(Cc2ccc(C#N)cc2)s1 [Compound 17, COC[C@@H](NC(=O)C1(CCCCC1)C(F)(F)F)C(=O)Nc2nnc(Cc3ccc(cc3)C#N)s2] | logD7.5 (log D measurement (HPLC)): 3.0; Papp A→B at 2 h, 2 µM (in vitro; 2 μM, 2 h): 8.2 ×10⁻⁶ cm/s; efflux ratio at 2 h, 2 µM (in vitro; Papp B–A / Papp A–B, read-out: Caco-2 efflux ratio (ER)): 1.5
2.9 | 80.2 (≈ 40.9 µg/mL) |  |  |  | CC(C)(O)[C@@H](NC(=O)C1(C(F)(F)F)CCCCC1)C(=O)Nc1nnc(Cc2ccc(C#N)cc2)s1 [Compound 19, CC(C)(O)[C@@H](NC(=O)C1(CCCCC1)C(F)(F)F)C(=O)Nc2nnc(Cc3ccc(cc3)C#N)s2] | 
2.59 | 181 (≈ 82.9 µg/mL) |  | 21.5 | > 25 | COC[C@@H](NC(=O)C1(OC)CCCCC1)C(=O)Nc1nnc(Cc2ccc(C#N)cc2)s1 [Compound 15, COC[C@@H](NC(=O)C1(CCCCC1)OC)C(=O)Nc2nnc(Cc3ccc(cc3)C#N)s2] | 
2.95 | 71 (≈ 32.4 µg/mL) |  |  |  | CCC1(C(=O)N[C@H](COC)C(=O)Nc2nnc(Cc3ccc(C#N)cc3)s2)CCCCC1 [Compound 14, CCC1(CCCCC1)C(=O)N[C@H](COC)C(=O)Nc2nnc(Cc3ccc(cc3)C#N)s2] | 
2.9 |  | > 25 |  |  | COCC(NC(=O)C1(C)CCCCC1)C(=O)Nc1nnc(Cc2ccc([N+](=O)[O-])cc2)s1 (stereo not shown) [Compound 9, COCC(NC(=O)C1(C)CCCCC1)C(=O)Nc2nnc(Cc3ccc(cc3)[N+](=O)[O-])s2] | 
